# In patent publication US10202361B2, “Pyridazinones as herbicides” (E I DU PONT DE NEMOURS AND COMPANY, priority 2014, dated 2019):
# Experiments:
# Assay type in all cases: in vivo
# [1] = tested on: chickweed (common chickweed, Stellaria media); assay: Test D pre-/postemergence controlled growth environment herbicide test; conditions: scale 0 to 100
# Excerpt: (§1) Seeds of plant species selected from bluegrass (annual bluegrass, Poa annua), blackgrass (Alopecurus myosuroides), canarygrass (Phalaris minor), chickweed (common chickweed, Stellaria media), galium (catchweed bedstraw, Galium aparine), downy bromegrass (Bromus tectorum), field poppy (Papaver rhoeas), field violet (Viola arvensis), foxtail, green (green foxtail, Setaria viridis), deadnettle (henbit deadnettle, Lamium amplexicaule), ryegrass, Italian (Italian ryegrass, Lolium multiflorum), kochia (Kochia scoparia), lambsquarters (Chenopodium album), oilseed rape (Brassica napus), pigweed (Amaranthus retroflexus), chamomile (scentless chamomile, Matricaria inodora), Russian thistle (Salsola kali), speedwell (bird's-eye speedwell, Veronica persica), barley, spring (spring barley, Hordeum vulgare), wheat, spring (spring wheat, Triticum aestivum), buckwheat, wild (wild buckwheat, Polygonum convolvulus), mustard, wild (wild mustard, Sinapis arvensis), oat, wild (wild oat, Avena fatua), radish, wild (wild radish, Raphanus raphanistrum), windgrass (Apera spica-venti), barley, winter (winter barley, Hordeum vulgare), and wheat, winter (winter wheat, Triticum aestivum) were planted into a silt loam soil and treated preemergence with test chemicals formulated in a non-phytotoxic solvent mixture which included a surfactant.
# (§2) At the same time, these species were planted in pots containing Redi-Earth® planting medium (Scotts Company, 14111 Scottslawn Road, Marysville, Ohio 43041) comprising spaghnum peat moss, vermiculite, wetting agent and starter nutrients and treated with postemergence applications of the test chemicals formulated in the same manner. Plants ranged in height from 2 to 18 cm (1- to 4-leaf stage). Treated plants and controls were maintained in a controlled growth environment for 14 to 21 d after which time all species were compared to controls and visually evaluated. Plant response ratings, summarized in Table D, are based on a scale of 0 to 100 where 0 is no effect and 100 is complete control. A dash (-) response means no test result.
# [2] = tested on: blackgrass (Alopecurus myosuroides); assay: as above; conditions: scale 0 to 100
# Excerpt: as §1, §2
# [3] = tested on: buckwheat, wild (wild buckwheat, Polygonum convolvulus); assay: as above; conditions: scale 0 to 100
# Excerpt: as §1, §2
# [4] = tested on: galium (catchweed bedstraw, Galium aparine); assay: as above; conditions: scale 0 to 100
# Excerpt: as §1, §2
# [5] = tested on: wheat, winter (winter wheat, Triticum aestivum); assay: as above; conditions: scale 0 to 100
# Excerpt: as §1, §2
# [6] = tested on: pigweed (Amaranthus retroflexus); assay: as above; conditions: scale 0 to 100
# Excerpt: as §1, §2
# [7] = tested on: chamomile (scentless chamomile, Matricaria inodora); assay: as above; conditions: scale 0 to 100
# Excerpt: as §1, §2
# [8] = tested on: field poppy (Papaver rhoeas); assay: as above; conditions: scale 0 to 100
# Excerpt: as §1, §2
# [9] = tested on: radish, wild (wild radish, Raphanus raphanistrum); assay: as above; conditions: scale 0 to 100
# Excerpt: as §1, §2
# [10] = tested on: windgrass (Apera spica-venti); assay: as above; conditions: scale 0 to 100
# Excerpt: as §1, §2
# [11] = tested on: nutsedge, yellow (yellow nutsedge, Cyperus esculentus); assay: Test E pre-/postemergence greenhouse herbicide test; conditions: Preemergence, scale 0 to 100
structure (smiles),measurement,setting,value
"COc1cc(=O)n(-c2ccc(F)cc2)nc1Cc1ccnc(C(F)(F)F)c1 [Compound 17, 2-(4-fluorophenyl)-5-methoxy-6-[[2-(trifluoromethyl)-4-pyridinyl]methyl]-3 (2H)-pyridazinone]",Plant response rating,"[1]; Postemergence, 31 g ai/ha",10
same,Plant response rating,"[1]; Postemergence, 62 g ai/ha",40
same,Plant response rating,"[1]; Postemergence, 125 g ai/ha",60
same,Plant response rating,"[1]; Postemergence, 250 g ai/ha",100
same,Plant response rating,"[1]; Postemergence, 500 g ai/ha",100
same,Plant response rating,"[1]; Preemergence, 31 g ai/ha",100
same,Plant response rating,"[1]; Preemergence, 62 g ai/ha",100
same,Plant response rating,"[1]; Preemergence, 125 g ai/ha",100
same,Plant response rating,"[1]; Preemergence, 250 g ai/ha",100
same,Plant response rating,"[1]; Preemergence, 500 g ai/ha",100
same,Plant response rating,"[2]; Postemergence, 31 g ai/ha",10
same,Plant response rating,"[2]; Postemergence, 62 g ai/ha",10
same,Plant response rating,"[2]; Postemergence, 125 g ai/ha",10
same,Plant response rating,"[2]; Postemergence, 250 g ai/ha",20
same,Plant response rating,"[2]; Postemergence, 500 g ai/ha",50
same,Plant response rating,"[2]; Preemergence, 31 g ai/ha",0
same,Plant response rating,"[2]; Preemergence, 62 g ai/ha",10
same,Plant response rating,"[2]; Preemergence, 125 g ai/ha",30
same,Plant response rating,"[2]; Preemergence, 250 g ai/ha",60
same,Plant response rating,"[2]; Preemergence, 500 g ai/ha",90
same,Plant response rating,"[3]; Postemergence, 31 g ai/ha",10
same,Plant response rating,"[3]; Postemergence, 62 g ai/ha",10
same,Plant response rating,"[3]; Postemergence, 125 g ai/ha",40
same,Plant response rating,"[3]; Postemergence, 250 g ai/ha",75
same,Plant response rating,"[3]; Postemergence, 500 g ai/ha",100
same,Plant response rating,"[3]; Preemergence, 31 g ai/ha",0
same,Plant response rating,"[3]; Preemergence, 62 g ai/ha",10
same,Plant response rating,"[3]; Preemergence, 125 g ai/ha",30
same,Plant response rating,"[3]; Preemergence, 250 g ai/ha",100
same,Plant response rating,"[3]; Preemergence, 500 g ai/ha",100
same,Plant response rating,"[4]; Postemergence, 31 g ai/ha",50
same,Plant response rating,"[4]; Postemergence, 62 g ai/ha",70
same,Plant response rating,"[4]; Postemergence, 125 g ai/ha",90
same,Plant response rating,"[4]; Postemergence, 250 g ai/ha",98
same,Plant response rating,"[4]; Postemergence, 500 g ai/ha",100
same,Plant response rating,"[4]; Preemergence, 31 g ai/ha",5
same,Plant response rating,"[4]; Preemergence, 62 g ai/ha",5
same,Plant response rating,"[4]; Preemergence, 125 g ai/ha",20
same,Plant response rating,"[4]; Preemergence, 250 g ai/ha",100
same,Plant response rating,"[4]; Preemergence, 500 g ai/ha",100
same,Plant response rating,"[5]; Postemergence, 31 g ai/ha",0
same,Plant response rating,"[5]; Postemergence, 62 g ai/ha",5
same,Plant response rating,"[5]; Postemergence, 125 g ai/ha",10
same,Plant response rating,"[5]; Postemergence, 250 g ai/ha",10
same,Plant response rating,"[5]; Postemergence, 500 g ai/ha",20
same,Plant response rating,"[5]; Preemergence, 31 g ai/ha",0
same,Plant response rating,"[5]; Preemergence, 62 g ai/ha",0
same,Plant response rating,"[5]; Preemergence, 125 g ai/ha",0
same,Plant response rating,"[5]; Preemergence, 250 g ai/ha",30
same,Plant response rating,"[5]; Preemergence, 500 g ai/ha",90
same,Plant response rating,"[6]; Postemergence, 31 g ai/ha",20
same,Plant response rating,"[6]; Postemergence, 62 g ai/ha",30
same,Plant response rating,"[6]; Postemergence, 125 g ai/ha",30
same,Plant response rating,"[6]; Postemergence, 250 g ai/ha",70
same,Plant response rating,"[6]; Postemergence, 500 g ai/ha",95
same,Plant response rating,"[6]; Preemergence, 31 g ai/ha",10
same,Plant response rating,"[6]; Preemergence, 62 g ai/ha",100
same,Plant response rating,"[6]; Preemergence, 125 g ai/ha",100
same,Plant response rating,"[6]; Preemergence, 250 g ai/ha",100
same,Plant response rating,"[6]; Preemergence, 500 g ai/ha",100
same,Plant response rating,"[7]; Postemergence, 31 g ai/ha",20
same,Plant response rating,"[7]; Postemergence, 62 g ai/ha",40
same,Plant response rating,"[7]; Postemergence, 125 g ai/ha",40
same,Plant response rating,"[7]; Postemergence, 250 g ai/ha",60
same,Plant response rating,"[7]; Postemergence, 500 g ai/ha",60
same,Plant response rating,"[7]; Preemergence, 31 g ai/ha",0
same,Plant response rating,"[7]; Preemergence, 62 g ai/ha",80
same,Plant response rating,"[7]; Preemergence, 125 g ai/ha",95
same,Plant response rating,"[7]; Preemergence, 250 g ai/ha",100
same,Plant response rating,"[7]; Preemergence, 500 g ai/ha",100
same,Plant response rating,"[8]; Postemergence, 31 g ai/ha",50
same,Plant response rating,"[8]; Postemergence, 62 g ai/ha",75
same,Plant response rating,"[8]; Postemergence, 125 g ai/ha",75
same,Plant response rating,"[8]; Postemergence, 250 g ai/ha",90
same,Plant response rating,"[8]; Postemergence, 500 g ai/ha",100
same,Plant response rating,"[8]; Preemergence, 31 g ai/ha",100
same,Plant response rating,"[8]; Preemergence, 62 g ai/ha",100
same,Plant response rating,"[8]; Preemergence, 125 g ai/ha",100
same,Plant response rating,"[8]; Preemergence, 250 g ai/ha",100
same,Plant response rating,"[8]; Preemergence, 500 g ai/ha",100
same,Plant response rating,"[9]; Postemergence, 31 g ai/ha",30
same,Plant response rating,"[9]; Postemergence, 62 g ai/ha",35
same,Plant response rating,"[9]; Postemergence, 125 g ai/ha",60
same,Plant response rating,"[9]; Postemergence, 250 g ai/ha",100
same,Plant response rating,"[9]; Postemergence, 500 g ai/ha",100
same,Plant response rating,"[9]; Preemergence, 31 g ai/ha",30
same,Plant response rating,"[9]; Preemergence, 62 g ai/ha",100
same,Plant response rating,"[9]; Preemergence, 125 g ai/ha",100
same,Plant response rating,"[9]; Preemergence, 250 g ai/ha",100
same,Plant response rating,"[9]; Preemergence, 500 g ai/ha",100
same,Plant response rating,"[10]; Postemergence, 31 g ai/ha",0
same,Plant response rating,"[10]; Postemergence, 62 g ai/ha",5
same,Plant response rating,"[10]; Postemergence, 125 g ai/ha",5
same,Plant response rating,"[10]; Postemergence, 250 g ai/ha",10
same,Plant response rating,"[10]; Postemergence, 500 g ai/ha",25
same,Plant response rating,"[10]; Preemergence, 31 g ai/ha",80
same,Plant response rating,"[10]; Preemergence, 62 g ai/ha",80
same,Plant response rating,"[10]; Preemergence, 125 g ai/ha",100
same,Plant response rating,"[10]; Preemergence, 250 g ai/ha",100
same,Plant response rating,"[10]; Preemergence, 500 g ai/ha",100
same,"Plant response rating: Nutsedge, Yellow",[11]; 16 g ai/ha,0
same,"Plant response rating: Nutsedge, Yellow",[11]; 31 g ai/ha,0
same,"Plant response rating: Nutsedge, Yellow",[11]; 62 g ai/ha,35
same,"Plant response rating: Nutsedge, Yellow",[11]; 125 g ai/ha,50
same,"Plant response rating: Nutsedge, Yellow",[11]; 250 g ai/ha,70
"CCOc1cc(=O)n(-c2ccc(F)cc2)nc1Cc1ccnc(C(F)(F)F)c1 [Compound 25, 5-ethoxy-2-(4-fluorophenyl)-6-[[2-(trifluoromethyl)-4-pyridinyl]methyl]-3 (2H)-pyridazinone]","Plant response rating: Nutsedge, Yellow",[11]; 8 g ai/ha,0
same,"Plant response rating: Nutsedge, Yellow",[11]; 16 g ai/ha,0
same,"Plant response rating: Nutsedge, Yellow",[11]; 31 g ai/ha,0
same,"Plant response rating: Nutsedge, Yellow",[11]; 62 g ai/ha,0
same,"Plant response rating: Nutsedge, Yellow",[11]; 125 g ai/ha,0
